Results from patent publication US7214396B2, “Confectionery product containing functional ingredients and method of making and using” (Nestec S.A., priority 2000, dated 2007).

Key:
[1] = cited from earlier work; for solubility: water at 37° C.
[2] = cooling effect: instant fall of temperature when powder is added to water; type: physicochemical; conditions: 150 g of powder added to 50 ml of water at 37° C.
Procedure: A suitable monosaccharide polyol is preferably selected from the group consisting of xylitol, erythritol, sorbitol or a combination thereof. […] (Instant fall of temperature when 150 g of powder are added to 50 ml of water at 37° C.).

| Compound | water solubility compared with other polyols ([1]; anhydride crystals) | solubility [1] | measured cooling effect (instant fall of temperature) [2] |
| --- | --- | --- | --- |
| OC[C@@H](O)[C@@H](O)CO [Erythritol] | less water soluble | – | – |
| OC[C@@H](O)[C@@H](O[C@H]1O[C@H](CO)[C@@H](O)[C@H](O)[C@H]1O)[C@H](O)[C@@H](O)CO [maltitol, reference compound] | – | less than 205 g/100 g | – |
| OC[C@@H](O)[C@@H](O)[C@H](O)[C@@H](O)CO [sorbitol] | – | 330–340 g/100 g | about −22 °C |
| OC[C@H]1O[C@@](CO)(O[C@H]2O[C@H](CO)[C@@H](O)[C@H](O)[C@H]2O)[C@@H](O)[C@@H]1O [sucrose, reference compound] | – | under 230 g/100 g | – |
| OC[C@@H](O)[C@H](O)[C@@H](O)CO [xylitol] | – | 250–260 g/100 g | about −20 °C |
